# Results taken from PubChem BioAssay (NCI).
#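 Tested at 5 concentrations; 48 h exposure; 96-well plates; endpoints linearly interpolated, else capped at highest concentration. At the TGI there is no net growth.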
# How the values were obtained:
# Test in all cases: NCI-60 cell line screen, 48 h
# COLO 205 colon = test system: COLO 205 colon
# HOP-92 NSCLC = test system: HOP-92 NSCLC
# IGROV1 ovarian = test system: IGROV1 ovarian
# NCI-H460 lung = test system: NCI-H460 lung
# NCI/ADR-RES ovarian = test system: NCI/ADR-RES ovarian
# PC-3 prostate = test system: PC-3 prostate
# SF-268 CNS = test system: SF-268 CNS
# SK-MEL-28 melanoma = test system: SK-MEL-28 melanoma
# UACC-257 melanoma = test system: UACC-257 melanoma
# UACC-62 melanoma = test system: UACC-62 melanoma
smiles,measurement,setting,value
Cc1cccc(N2C(=O)C3ON(C(C(N)=O)c4ccccc4)C(c4c5ccccc5c(Cl)c5ccccc45)C3C2=O)c1C (stereo not given),TGI,COLO 205 colon,16.7 µM
same,TGI,HOP-92 NSCLC,22.6 µM
same,TGI,IGROV1 ovarian,32.4 µM
same,TGI,NCI-H460 lung,21.6 µM
same,TGI,NCI/ADR-RES ovarian,37.1 µM
same,TGI,PC-3 prostate,17 µM
same,TGI,SF-268 CNS,27.3 µM
same,TGI,SK-MEL-28 melanoma,41.7 µM
same,TGI,UACC-257 melanoma,18.1 µM
same,TGI,UACC-62 melanoma,13.8 µM
